Data: patent US20220274979A1 (Bayer Pharma Aktiengesellschaft, priority 2018, published 2022)

Assays:
[1] = biological target: T1, hK-RasG12C - hSOS1 interaction (Homo sapiens, UniProt Q07889); assay: Biochemical Assay 1: hK-RasG12C interaction assay with hSOS1 (HTRF); format: binding; conditions: for IC50: values expressed as IC50; for inhibition at 20 µM: read-out: Assay 1 (hKRAS, hSOS Interaction) activity (expressed as IC50, or as % inhibition at 20 μM)
T1 construct: hSOS1 (amino acid 564-1049); made in house; host or cells: E. coli BL21 (DE3)
T1 sequence (Q07889 with tags, fused parts or gaps): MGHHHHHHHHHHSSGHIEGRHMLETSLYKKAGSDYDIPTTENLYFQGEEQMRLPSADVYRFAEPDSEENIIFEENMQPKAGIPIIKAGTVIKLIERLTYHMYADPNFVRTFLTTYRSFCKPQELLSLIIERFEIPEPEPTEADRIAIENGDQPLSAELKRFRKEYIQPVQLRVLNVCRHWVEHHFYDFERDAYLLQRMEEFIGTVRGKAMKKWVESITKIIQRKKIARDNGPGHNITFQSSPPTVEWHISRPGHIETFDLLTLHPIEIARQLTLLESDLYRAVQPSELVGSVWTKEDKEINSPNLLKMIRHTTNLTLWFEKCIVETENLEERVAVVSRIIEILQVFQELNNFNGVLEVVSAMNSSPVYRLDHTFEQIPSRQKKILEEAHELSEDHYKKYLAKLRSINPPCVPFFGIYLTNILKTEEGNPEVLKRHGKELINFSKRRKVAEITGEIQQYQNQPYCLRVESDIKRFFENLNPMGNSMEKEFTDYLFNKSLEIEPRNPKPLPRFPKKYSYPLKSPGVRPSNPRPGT
Description: Biochemical Assay 1: hK-RasG12C Interaction Assay with hSOS1
This assay quantifies the equilibrium interaction of human SOS1 (hSOS1) with human K-Ras^G12C (hK-RasG12C). Detection of the interaction is achieved by measuring homogenous time-resolved fluorescence resonance energy transfer (HTRF) from antiGST-Europium (FRET donor) bound to GST-K-RasG12C to anti-6His-XL665 bound to His-tagged hSOS1 (FRET-acceptor).
The assay buffer contained 5 mM HEPES pH 7.4 (Applichem), 150 mM NaCl (Sigma), 10 mM EDTA (Promega), 1 mM DTT (Thermofisher), 0.05% BSA Fraction V, pH 7.0, (ICN Biomedicals), 0.0025% (v/v) Igepal (Sigma) and 100 mM KF (FLUKA).
Concentrations of protein batches used were optimized to be within the linear range of the HTRF signal. A Ras working solution was prepared in assay buffer containing typically 10 nM GST-hK-RasG12C and 2 nM antiGST-Eu(K) (Cisbio, France). A SOS1 working solution was prepared in assay buffer containing typically 20 nM His-hSOS1 and 10 nM anti-6His-XL665 (Cisbio, France). An inhibitor control solution was prepared in assay buffer containing 10 nM anti-6His-XL665 without hSOS1.
Fifty nl of a 100-fold concentrated solution of the test compound in DMSO were transferred into a black microtiter test plate (384 or 1536, Greiner Bio-One, Germany) For this, either a Hummingbird liquid handler (Digilab, Mass., USA) or an Echo acoustic system (Labcyte, Calif., USA) was used.
All steps of the assay were performed at 20° C. A volume of 2.5 μl of the Ras working solution was added to all wells of the test plate using a Multidrop dispenser (Thermo Labsystems). After […] preincubation, 2.5 μl of the SOS1 working solution were added to all wells except for those wells at the side of the test plate that were subsequently filled with 2.5 μl of the inhibitor control solution. After […] incubation the fluorescence was measured with a Pherastar (BMG, Germany) using the HTRF module (excitation 337 nm, emission 1:620 nm, emission 2:665 nm).
IC50 values were calculated by 4-Parameter fitting using a commercial software package (Genedata Screener, Switzerland).

[2] = biological target: T2, Epidermal Growth Factor Receptor (EGFR) (Homo sapiens, UniProt P00533); assay: EGFR kinase assay (TR-FRET); format: biochemical; conditions: 10 μM ATP; read-out: EGFR kinase inhibition IC50
T2 construct: purchased Sigma-Aldrich E3641
Source text: EGFR inhibitory activity of compounds of the present invention was quantified employing the TR-FRET based EGFR assay as described in the following paragraphs.
Epidermal Growth Factor Receptor (EGFR) affinity purified from human carcinoma A431 cells (Sigma-Aldrich, # E3641) was used as kinase. As substrate for the kinase reaction the biotinylated peptide biotin-Ahx-[…] (SEQ ID NO: 8, C-terminus in amid form) was used which can be purchased e.g. form the company Biosyntan GmbH (Berlin-Buch, Germany).
For the assay 50 nL of a 100 fold concentrated solution of the test compound in DMSO was pipetted into a black low volume 384 well microtiter plate (Greiner Bio-One, Frickenhausen, Germany), 2 μL of a solution of EGFR in aqueous assay buffer [50 mM Hepes/HCl pH 7.0, 1 mM MgCl2, 5 mM MnCl2, 0.5 mM activated sodium ortho-vanadate, 0.005% (v/v) Tween-20]were added and the mixture was incubated for […] at 22° C. to allow pre-binding of the test compounds to the enzyme before the start of the kinase reaction. Then the kinase reaction was started by the addition of 3 μL of a solution of adenosine-tri-phosphate (ATP, 16.7 μM=>final conc. in the 5 μL assay volume is 10 μM) and substrate (1.67 μM =>final conc. in the 5 μL assay volume is 1μM) in assay buffer and the resulting mixture was incubated for a reaction time of […] at 22° C. The concentration of EGFR was adjusted depending of the activity of the enzyme lot and was chosen appropriate to have the assay in the linear range, typical concentration were about 3 U/ml. The reaction was stopped by the addition of 5 μl of a solution of HTRF detection reagents (0.1 μM streptavidine-XL665 [Cis Biointernational]and 1 nM PT66-Tb-Cryptate, an terbium-cryptate labelled anti-phospho-tyrosine antibody from Cis Biointernational [instead of the PT66-Tb-cryptate PT66-Eu-Chelate from Perkin Elmer can also be used]) in an aqueous EDTA-solution (80 mM EDTA, 0.2% (w/v) bovine serum albumin in 50 mM HEPES pH 7.5).
The resulting mixture was incubated 1 h at 22° C. to allow the binding of the biotinylated phosphorylated peptide to the streptavidine-XL665 and the PT66-Eu-Chelate. Subsequently the amount of phosphorylated substrate was evaluated by measurement of the resonance energy transfer from the PT66-Tb-Cryptate to the streptavidine-XL665. Therefore, the fluorescence emissions at 620 nm and 665 nm after excitation at 337 nm were measured in a HTRF reader, e.g. a Pherastar (BMG Labtechnologies, Offenburg, Germany) or a Viewlux (Perkin-Elmer). The ratio of the emissions at 665 nm and at […] was taken as the measure for the amount of phosphorylated substrate.

T2 sequence (P00533 25-1210): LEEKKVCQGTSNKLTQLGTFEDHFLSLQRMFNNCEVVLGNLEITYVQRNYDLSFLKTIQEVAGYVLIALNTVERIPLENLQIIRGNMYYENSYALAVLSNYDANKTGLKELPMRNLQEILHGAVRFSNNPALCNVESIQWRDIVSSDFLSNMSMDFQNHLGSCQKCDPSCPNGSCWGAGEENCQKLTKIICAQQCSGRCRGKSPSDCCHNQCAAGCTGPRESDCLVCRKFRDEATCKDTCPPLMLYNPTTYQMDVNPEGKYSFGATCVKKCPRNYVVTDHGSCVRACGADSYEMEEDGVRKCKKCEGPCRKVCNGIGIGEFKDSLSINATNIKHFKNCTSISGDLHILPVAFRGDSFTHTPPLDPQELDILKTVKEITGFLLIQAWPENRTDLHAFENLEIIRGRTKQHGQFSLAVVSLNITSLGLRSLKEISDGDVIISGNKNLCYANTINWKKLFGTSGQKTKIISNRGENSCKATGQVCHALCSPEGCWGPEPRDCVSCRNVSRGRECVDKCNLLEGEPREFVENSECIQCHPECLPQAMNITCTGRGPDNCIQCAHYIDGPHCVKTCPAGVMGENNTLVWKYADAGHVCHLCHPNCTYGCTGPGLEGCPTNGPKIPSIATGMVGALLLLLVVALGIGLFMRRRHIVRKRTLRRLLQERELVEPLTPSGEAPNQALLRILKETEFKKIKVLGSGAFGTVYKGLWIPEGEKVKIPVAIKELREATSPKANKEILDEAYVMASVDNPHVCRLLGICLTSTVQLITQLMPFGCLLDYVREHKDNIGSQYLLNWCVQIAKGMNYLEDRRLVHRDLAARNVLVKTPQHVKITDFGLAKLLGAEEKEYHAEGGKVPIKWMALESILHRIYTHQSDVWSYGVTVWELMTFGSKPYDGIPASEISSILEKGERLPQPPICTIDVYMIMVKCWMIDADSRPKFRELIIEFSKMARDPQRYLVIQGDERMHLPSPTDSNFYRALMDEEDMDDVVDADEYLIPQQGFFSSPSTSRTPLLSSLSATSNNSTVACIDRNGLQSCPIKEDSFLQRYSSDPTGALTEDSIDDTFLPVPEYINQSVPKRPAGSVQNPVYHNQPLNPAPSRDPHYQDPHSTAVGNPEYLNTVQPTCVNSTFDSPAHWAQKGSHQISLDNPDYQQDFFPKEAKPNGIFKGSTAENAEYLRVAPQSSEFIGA

In the case of `Cc1nc(NC(C)c2ccc(-c3ccccc3CN(C)C)s2)c2cc(OC3CCS(=O)(=O)CC3)ncc2n1` (stereo not shown) [Example 67, N-[1-(5-{2-[(dimethylamino)methyl]phenyl}thiophen-2-yl)ethyl]-6-[(1,1-dioxidotetrahydro-2H-thiopyran-4-yl)oxy]-2-methylpyrido[3,4-d]pyrimidin-4-amine], the IC50 [1] is reported as 0.042 µM and the IC50 [2] is reported as greater than 20 µM.
For `Cc1nc(N[C@H](C)c2cccc(Br)c2)c2nc(Oc3ccccc3)ncc2n1` [Example 25, N-[(1R)-1-(3-bromophenyl)ethyl]-2-methyl-6-phenoxypyrimido[5,4-d]pyrimidin-4-amine], the inhibition at 20 µM [1] was 23.7% and the IC50 [2] was greater than 20 µM.
Work on `Cc1nc(NC(C)c2ccc(-c3ccccc3CN(C)C)s2)c2cc(N3CCC3)ncc2n1` (stereo not shown) [Example 71, 6-(azetidin-1-yl)-N-[1-(5-{2-[(dimethylamino)methyl]phenyl}thiophen-2-yl)ethyl]-2-methylpyrido[3,4-d]pyrimidin-4-amine] yielded an IC50 [1] of 0.0511 µM and an IC50 [2] greater than 20 µM.
Work on `CCOc1cc2c(N[C@H](C)c3ccc(C#N)cc3)nc(C)nc2cn1` [Example 18, 4-{(1R)-1-[(6-ethoxy-2-methylpyrido[3,4-d]pyrimidin-4-yl)amino]ethyl}benzonitrile] yielded an IC50 [1] of 1.11 µM and an IC50 [2] greater than 20 µM.
`CCOc1cc2c(N[C@H](C)c3ccc(Br)cc3)nc(C)nc2cn1` [Example 13, N-[(1R)-1-(4-bromophenyl)ethyl]-6-ethoxy-2-methylpyrido[3,4-d]pyrimidin-4-amine] was tested, and the IC50 [1] was 1.22 µM and the IC50 [2] was greater than 20 µM.
With `Cc1nc(N[C@H](C)c2cccc(Br)c2)c2nc(N3CCOCC3)ccc2n1` [Example 27, N-[(1R)-1-(3-bromophenyl)ethyl]-2-methyl-6-(morpholin-4-yl)pyrido[3,2-d]pyrimidin-4-amine] the IC50 [1] was 2.58 µM and the IC50 [2] was greater than 20 µM.
Compound `Cc1nc(NC(C)c2ccc(-c3ccccc3CN(C)C)s2)c2cc(N3CC(NC(=O)c4ccccc4)C3)ncc2n1` (stereo not shown) [Example 88, N-[1-(4-{[1-(5-{2-[(dimethylamino)methyl]phenyl}thiophen-2-yl)ethyl]amino}-2-methylpyrido[3,4-d]pyrimidin-6-yl)azetidin-3-yl]benzamide] has an IC50 [1] of 0.0595 µM and an IC50 [2] greater than 20 µM.
`Cc1nc(N[C@H](C)c2ccc(F)cc2)c2cc(OCC3CCOCC3)ncc2n1` [Example 11, N-[1R)-1-(4-fluorophenypethyl]-2-methyl-6-(tetrahydro-2H-pyran-4-ylmethoxy)-pyrido[3,4-d]pyrimidin-4-amine] was tested, and the IC50 [1] was 1.79 µM and the IC50 [2] was greater than 20 µM.
With `Cc1nc(N[C@H](C)c2ccc(F)cc2)c2cc(F)ncc2n1` [Example 9] the inhibition at 20 µM [1] was 54% and the IC50 [2] was greater than 20 µM.
In the case of `Cc1nc(NC(C)c2ccc(-c3ccccc3CN(C)C)s2)c2cc(N3CC(N)C3)ncc2n1` (stereo not shown) [Example 93, 6-(3-aminoazetidin-1-yl)-N-[1-(5-{2-[(dimethylamino)methyl]phenyl}thiophen-2-yl)ethyl]-2-methylpyrido[3,4-d]pyrimidin-4-amine], the IC50 [1] is reported as 0.0335 µM and the IC50 [2] is reported as greater than 20 µM.
Work on `Cc1nc(N[C@H](C)c2cccc(Br)c2)c2cc(N3CCNC(=O)C3)ncc2n1` [Example 45] yielded an IC50 [1] of 0.0918 µM and an IC50 [2] greater than 20 µM.
`COc1cc2c(NC(C)c3ccc(-c4ccccc4CN(C)C)s3)nc(C)nc2cn1` (stereo not shown) [Example 64, N-[1-(5-{2-[(dimethylamino)methyl]phenyl}thiophen-2-yl)ethyl]-6-methoxy-2-methylpyrido[3,4-d]pyrimidin-4-amine] showed an IC50 [1] of 0.0595 µM and an IC50 [2] greater than 20 µM.
Work on `COCCOc1ccc2nc(C)nc(N[C@H](C)c3cccc(Br)c3)c2n1` [Example 30, N-[(1R)-1-(3-bromophenyl)ethyl]-6-(2-methoxyethoxy)-2-methylpyrido[3,2-d]pyrimidin-4-amine] yielded an IC50 [1] of 5.43 µM and an IC50 [2] greater than 20 µM.
With `Cc1nc(NC(C)c2ccc(-c3ccccc3CN(C)C)s2)c2cc(NC3CCOCC3)ncc2n1` (stereo not shown) [Example 53, N4-[1-(5-{2-[(dimethylamino)methyl]phenyl}-2-thienyl)ethyl]-2-methyl-N6-(tetrahydro-2H-pyran-4-yl)pyrido[3,4-d]pyrimidine-4,6-diamine] the IC50 [1] was 0.0547 µM and the IC50 [2] was greater than 20 µM.
`Cc1nc(N[C@H](C)c2cccc(Br)c2)c2cc(OCC3CC3)ncc2n1` [Example 75, N-[(1R)-1-(3-bromophenyl)ethyl]-6-(cyclopropylmethoxy)-2-methylpyrido[3,4-d]pyrimidin-4-amine] gave an IC50 [1] of 4.18 µM and an IC50 [2] greater than 20 µM.
Work on `CNCc1ccccc1-c1ccc(C(C)Nc2nc(C)nc3cnc(Oc4ccc(N5CCCC5=O)cc4)cc23)s1` (stereo not shown) [Example 38, 1-{4-[(2-methyl-4-{[1-(5-{2-[(methylamino)methyl]phenyl}thiophen-2-yl)ethyl]amino}pyrido[3,4-d]pyrimidin-6-yl)oxy]phenyl}pyrrolidin-2-one] yielded an IC50 [1] of 0.218 µM and an IC50 [2] greater than 20 µM.
Work on `COc1cc2c(NC(C)c3cccc4c3cnn4C)nc(C)nc2cn1` (stereo not shown) [Example 14, 6-methoxy-2-methyl-N-[1-(1-methyl-1H-indazol-4-yl)ethyl]pyrido[3,4-d]pyrimidin-4-amine] yielded an IC50 [1] of 1.65 µM and an IC50 [2] greater than 20 µM.
With `CCOc1cc2c(NC(C)c3cccc4sccc34)nc(C)nc2cn1` (stereo not shown) [Example 3, N-[1-(1-benzothiophen-4-yl)ethyl]-6-ethoxy-2-methylpyrido[3,4-d]pyrimidin-4-amine] the IC50 [1] was 0.215 µM and the IC50 [2] was greater than 20 µM.
`Cc1nc(N[C@H](C)c2cccc(Br)c2)c2cc(NCCS(C)(=O)=O)ncc2n1` [Example 83] showed an IC50 [1] of 0.575 µM and an IC50 [2] greater than 20 µM.
`Cc1nc(N[C@H](C)c2cccc(Br)c2)c2cc(NCCn3ccnc3)ncc2n1` [Example 84, N4-[(1R)-1-(3-bromophenyl)ethyl]-N6-[2-(1H-imidazol-1-yl)ethyl]-2-methylpyrido[3,4-d]pyrimidine-4,6-diamine] was tested, and the IC50 [1] was 0.513 µM and the IC50 [2] was greater than 20 µM.
